Reference: patent US10131652B2, “Pyrimidinyloxy benzene derivatives as herbicides” (E. I. DU PONT DE NEMOURS AND COMPANY, priority 2014, dated 2018)
Where two headings read alike, the source gives them in different places.

How the values were obtained:
Assay type in all cases: in vivo
[1] = test system: Italian ryegrass (Lolium multiflorum); assay: Test B pre-/postemergence plant response
Method in brief: (§1)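 Seeds in loam–sand blend given preemergence soil spray; separately, plants at one- to two-leaf stage (2–10 cm) sprayed postemergence, compounds in non-phytotoxic solvent with surfactant. Injury rated visually versus untreated controls after ~10 days in greenhouse, 0 (no effect) to 100 (complete control).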

[2] = test system: barnyardgrass (Echinochloa crus-galli); assay: Test B pre-/postemergence plant response
Method in brief: as §1

[3] = test system: corn (Zea mays); assay: Test B pre-/postemergence plant response
Method in brief: as §1

[4] = test system: giant foxtail (Setaria faberii); assay: Test B pre-/postemergence plant response
Method in brief: as §1

[5] = test system: kochia (Kochia scoparia); assay: Test B pre-/postemergence plant response
Method in brief: as §1

[6] = test system: pigweed (Amaranthus retroflexus); assay: Test B pre-/postemergence plant response
Method in brief: as §1

[7] = test system: ragweed (common ragweed, Ambrosia elatior); assay: Test B pre-/postemergence plant response
Method in brief: as §1

[8] = test system: wheat (Triticum aestivum); assay: Test B pre-/postemergence plant response
Method in brief: as §1

[9] = test system: blackgrass (Alopecurus myosuroides); assay: Test B postemergence plant response
Method in brief: (§2)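 Weeds grown in loam soil/sand pots were sprayed postemergence at 2 to 10 cm height, one- to two-leaf stage. After approximately 10 days in greenhouse, injury was rated visually against untreated controls on a 0 (no effect) to 100 (complete control) scale; dash means no test result.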

[10] = test system: galium (catchweed bedstraw, Galium aparine); assay: Test B postemergence plant response
Method in brief: as §2

[11] = test system: barnyardgrass (Echinochloa crus-galli); assay: Test C flooded paddy test plant response; details: Flood, 250 g ai/ha, scale of 0 to 100 where 0 is no effect and 100 is complete control, 13 to 15 days
Method in brief: (§3)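 Visual injury ratings (0, no effect; 100, complete control) were assigned after 13 to 15 days in a greenhouse, comparing treated plants with controls. Compounds had been added straight into paddy water over 2-leaf-stage plants flooded to 3 cm.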

[12] = test system: ducksalad (Heteranthera limosa); assay: Test C flooded paddy test plant response; details: Flood, 250 g ai/ha, scale of 0 to 100 where 0 is no effect and 100 is complete control, 13 to 15 days
Method in brief: as §3

[13] = test system: rice (Oryza sativa); assay: Test C flooded paddy test plant response; details: Flood, 250 g ai/ha, scale of 0 to 100 where 0 is no effect and 100 is complete control, 13 to 15 days
Method in brief: as §3

[14] = test system: small-flower umbrella sedge (Cyperus difformis); assay: Test C flooded paddy test plant response; details: Flood, 250 g ai/ha, scale of 0 to 100 where 0 is no effect and 100 is complete control, 13 to 15 days
Method in brief: as §3

[15] = 125 g ai/ha, postemergence, 0 to 100 scale, 0 no effect, 100 complete control
[16] = Postemergence, 500 g ai/ha, 0 to 100 scale (0 no effect, 100 complete control)
[17] = Preemergence, 125 g ai/ha, 0 to 100 scale (0 no effect, 100 complete control)
[18] = Preemergence, 500 g ai/ha, 0 to 100 scale where 0 is no effect and 100 is complete control
[19] = 31 g ai/ha, Preemergence, 0 to 100 scale where 0 is no effect and 100 is complete control
[20] = Postemergence, 31 g ai/ha, 0 to 100 scale (0 no effect, 100 complete control)

Compound: FC(F)(F)c1ccc(-c2c(Cl)cccc2Oc2ncc(Cl)cn2)nc1 [Compound 160, 5-chloro-2-[2-[5-(trifluoromethyl)-2-pyridinyl]-3-chlorophenoxy]pyrimidine]
- Plant response rating, Ryegrass, Italian [1, 15]: 0
- Plant response rating, Ryegrass, Italian [1, 16]: 90
- Ryegrass, Italian plant response rating [1, 17]: 0
- Plant response rating, Ryegrass, Italian [1, 18]: 0
- pest or weed control at 125 g/ha ([2]; Echinochloa crus-galli, post-emergence, 240 h, 125 g ai/ha, postemergence, 0 to 100 scale, 0 no effect, 100 complete control, read-out: Plant response rating, Barnyardgrass): 0%
- pest or weed control at 500 g/ha ([2]; Echinochloa crus-galli, post-emergence, 240 h, Postemergence, 500 g ai/ha, 0 to 100 scale (0 no effect, 100 complete control), read-out: Plant response rating, Barnyardgrass): 80%
- pest or weed control at 500 g/ha ([2]; Echinochloa crus-galli, pre-emergence, 240 h, Preemergence, 500 g ai/ha, 0 to 100 scale where 0 is no effect and 100 is complete control, read-out: Plant response rating, Barnyardgrass): 80%
- Barnyardgrass plant response rating [2, 17]: 0
- Corn plant response rating (crop injury, 0 = no effect, 100 = complete kill) at 125 g/ha ([3]; Zea mays, post-emergence, 240 h, 125 g ai/ha, postemergence, 0 to 100 scale, 0 no effect, 100 complete control): 30%
- Corn plant response rating (crop injury, 0 = no effect, 100 = complete kill) at 500 g/ha ([3]; Zea mays, post-emergence, 240 h, Postemergence, 500 g ai/ha, 0 to 100 scale (0 no effect, 100 complete control)): 90%
- Foxtail, Giant plant response rating [4, 17]: 50
- pest or weed control at 125 g/ha ([4]; Setaria faberi, post-emergence, 240 h, 125 g ai/ha, postemergence, 0 to 100 scale, 0 no effect, 100 complete control, read-out: Plant response rating, Foxtail, Giant): 30%
- pest or weed control at 500 g/ha ([4]; Setaria faberi, post-emergence, 240 h, Postemergence, 500 g ai/ha, 0 to 100 scale (0 no effect, 100 complete control), read-out: Plant response rating, Foxtail, Giant): 100%
- pest or weed control at 500 g/ha ([4]; Setaria faberi, pre-emergence, 240 h, Preemergence, 500 g ai/ha, 0 to 100 scale where 0 is no effect and 100 is complete control, read-out: Plant response rating, Foxtail, Giant): 100%
- Plant response rating, Kochia [5, 15]: 40
- Plant response rating, Kochia [5, 16]: 90
- Kochia plant response rating [5, 17]: 30
- Plant response rating, Kochia [5, 18]: 90
- pest or weed control at 125 g/ha ([6]; Amaranthus retroflexus, post-emergence, 240 h, 125 g ai/ha, postemergence, 0 to 100 scale, 0 no effect, 100 complete control, read-out: Plant response rating, Pigweed): 90%
- pest or weed control at 500 g/ha ([6]; Amaranthus retroflexus, post-emergence, 240 h, Postemergence, 500 g ai/ha, 0 to 100 scale (0 no effect, 100 complete control), read-out: Plant response rating, Pigweed): 100%
- pest or weed control at 500 g/ha ([6]; Amaranthus retroflexus, pre-emergence, 240 h, Preemergence, 500 g ai/ha, 0 to 100 scale where 0 is no effect and 100 is complete control, read-out: Plant response rating, Pigweed): 100%
- Pigweed plant response rating [6, 17]: 90
- Plant response rating, Ragweed [7, 15]: 0
- Plant response rating, Ragweed [7, 16]: 30
- Ragweed plant response rating [7, 17]: 0
- Plant response rating, Ragweed [7, 18]: 0
- plant injury at 125 g/ha ([8]; Triticum aestivum, post-emergence, 240 h, 125 g ai/ha, postemergence, 0 to 100 scale, 0 no effect, 100 complete control, read-out: Plant response rating, Wheat): 20%
- plant injury at 500 g/ha ([8]; Triticum aestivum, post-emergence, 240 h, Postemergence, 500 g ai/ha, 0 to 100 scale (0 no effect, 100 complete control), read-out: Plant response rating, Wheat): 80%
- Plant response rating, Blackgrass [9, 15]: 50
- Plant response rating, Blackgrass [9, 16]: 90
- Plant response rating, Galium [10, 15]: 70
- Plant response rating, Galium [10, 16]: 100
- pest or weed control at 250 g/ha ([11]; Echinochloa crus-galli, read-out: Barnyardgrass plant response rating): 0%
- pest or weed control at 250 g/ha ([12]; Heteranthera limosa, read-out: Ducksalad plant response rating): 0%
- plant injury at 250 g/ha ([13]; Oryza sativa, read-out: Rice plant response rating): 0%
- pest or weed control at 250 g/ha ([14]; Cyperus difformis, read-out: Sedge, Umbrella plant response rating): 0%

Compound: FC(F)(F)Cn1cnc(-c2ccccc2Oc2ncc(Cl)cn2)c1 [Compound 161]
- Plant response rating, Ryegrass, Italian [1, 15]: 0
- Plant response rating, Ryegrass, Italian [1, 16]: 0
- Ryegrass, Italian plant response rating [1, 17]: 0
- Plant response rating, Ryegrass, Italian [1, 18]: 0
- Plant response rating, Barnyardgrass [2, 15]: 0
- Plant response rating, Barnyardgrass [2, 16]: 0
- Barnyardgrass plant response rating [2, 17]: 0
- Plant response rating, Barnyardgrass [2, 18]: 0
- Plant response rating, Corn [3, 15]: 0
- Plant response rating, Corn [3, 16]: 0
- Plant response rating, Foxtail, Giant [4, 15]: 0
- Plant response rating, Foxtail, Giant [4, 16]: 0
- Foxtail, Giant plant response rating [4, 17]: 0
- Plant response rating, Foxtail, Giant [4, 18]: 0
- Plant response rating, Kochia [5, 15]: 0
- Plant response rating, Kochia [5, 16]: 0
- Kochia plant response rating [5, 17]: 0
- Plant response rating, Kochia [5, 18]: 0
- Plant response rating, Pigweed [6, 15]: 0
- Plant response rating, Pigweed [6, 16]: 0
- Pigweed plant response rating [6, 17]: 0
- Plant response rating, Pigweed [6, 18]: 0
- Plant response rating, Ragweed [7, 15]: 0
- Plant response rating, Ragweed [7, 16]: 0
- Ragweed plant response rating [7, 17]: 0
- Plant response rating, Ragweed [7, 18]: 0
- Plant response rating, Wheat [8, 15]: 0
- Plant response rating, Wheat [8, 16]: 0
- Plant response rating, Blackgrass [9, 15]: 0
- Plant response rating, Blackgrass [9, 16]: 0
- Plant response rating, Galium [10, 15]: 0
- Plant response rating, Galium [10, 16]: 0
- Barnyardgrass plant response rating [11]: 0
- Ducksalad plant response rating [12]: 0
- Rice plant response rating [13]: 0
- Sedge, Umbrella plant response rating [14]: 0

Compound: Clc1cnc(Oc2ccccc2-c2cnccn2)nc1 [Compound 163]
- Plant response rating, Ryegrass, Italian [1, 19]: 0
- Plant response rating, Ryegrass, Italian [1, 15]: 0
- Plant response rating, Ryegrass, Italian [1, 20]: 0
- Ryegrass, Italian plant response rating [1, 17]: 0
- Plant response rating, Barnyardgrass [2, 19]: 0
- Plant response rating, Barnyardgrass [2, 15]: 0
- Plant response rating, Barnyardgrass [2, 20]: 0
- Barnyardgrass plant response rating [2, 17]: 0
- Plant response rating, Corn [3, 15]: 10
- Plant response rating, Corn [3, 20]: 0
- Plant response rating, Foxtail, Giant [4, 19]: 0
- Plant response rating, Foxtail, Giant [4, 15]: 10
- Plant response rating, Foxtail, Giant [4, 20]: 0
- Foxtail, Giant plant response rating [4, 17]: 0
- Plant response rating, Kochia [5, 19]: 0
- Plant response rating, Kochia [5, 15]: 50
- Plant response rating, Kochia [5, 20]: 10
- Kochia plant response rating [5, 17]: 0
- Plant response rating, Pigweed [6, 19]: 0
- Plant response rating, Pigweed [6, 15]: 30
- Plant response rating, Pigweed [6, 20]: 20
- Pigweed plant response rating [6, 17]: 30
- Plant response rating, Ragweed [7, 19]: 0
- Plant response rating, Ragweed [7, 15]: 30
- Plant response rating, Ragweed [7, 20]: 30
- Ragweed plant response rating [7, 17]: 40
- Plant response rating, Wheat [8, 15]: 0
- Plant response rating, Wheat [8, 20]: 0
- Plant response rating, Blackgrass [9, 15]: 20
- Plant response rating, Blackgrass [9, 20]: 20
- Plant response rating, Galium [10, 15]: 30
- Plant response rating, Galium [10, 20]: 20
- Barnyardgrass plant response rating [11]: 0
- Ducksalad plant response rating [12]: 0
- Rice plant response rating [13]: 0
- Sedge, Umbrella plant response rating [14]: 0
